Test results taken from patent EP4763837A1, “PHOTOCHROMIC COMPOUND, CURABLE COMPOSITION, OPTICAL ARTICLE, LENS, AND EYEGLASSES” (TOKUYAMA CORPORATION, priority 2023, dated 2025).
Where “and” joins values, the source holds several entries; their conditions need not be identical. Equal entries are not always repeated.

How the values were obtained:
Assay type in all cases: physicochemical
[1] = Photochromic property of photochromic laminate made by coating method; settings: for Residual ratio: laminate by coating method, A96/A0 x 100 after 96 hours accelerated degradation, xenon weather meter X25
Description: First, the photochromic compound obtained in Example 1, a photoinitiator, and a polymerizable compound were mixed to obtain a curable composition.
The polymerizable compound was a combination of the following radical polymerizable monomers:
Polyethylene glycol dimethacrylate (average molecular weight: 736): 42 parts by mass • Polyethylene glycol dimethacrylate (average molecular weight: 536): 12 parts by mass • Trimethylolpropane methacrylate: 38 parts by mass γ-Methacryloyloxypropyltrimethoxysilane: 2 parts by mass Glycidyl methacrylate: 1 part by mass.
Note that, in the curable composition, the photochromic compound was added in an amount of 0.25 mmol taking a total amount of the radical polymerizable monomers as 100 g.
Phenylbis(2,4,6-trimethylbenzoyl)phosphine oxide (photoinitiator: Omnirad 819): 0.3 parts by mass Ethylene bis(oxyethylene) bis[3-(5-tert-butyl-4-hydroxy-m-tolyl) propionate] (stabilizer, Irganox 245): 1 part by mass Bis(1,2,2,6,6-pentamethyl-4-piperidyl)sebacate: 3 parts by mass Leveling agent (L-7001) manufactured by DuPont Toray Specialty Materials K.K.: 0.1 parts by mass.
Using this curable composition, a photochromic laminate was obtained by a lamination method including polymerization as follows.
First, a thiourethane plastic lens with a center thickness of 2 mm and a refractive index of 1.60 was prepared as an optical substrate. Note that, the thiourethane plastic lens had been alkaline-etched in a 10% sodium hydroxide aqueous solution at 50°C for 5 minutes in advance, and then thoroughly washed with distilled water.
A spin coater (1H-DX2, manufactured by MIKASA CO., LTD) was used to coat a surface of the above-mentioned plastic lens with a moisture-curing primer (product name: TR-SC-P, manufactured by Tokuyama Corporation) at a rotation speed of 70 rpm for 15 seconds, followed by 1000 rpm for 10 seconds. Then, about 2 g of the photochromic curable composition obtained above was spin-coated at a rotation speed of 60 rpm for 40 seconds, followed by 600 rpm for 10 to 20 seconds so as to achieve a photochromic coating layer with a thickness of 40 µm.
The lens of which surface had been coated with the photochromic curable composition (photochromic coating layer) was irradiated with light for 90 seconds in a nitrogen gas atmosphere using a metal halide lamp with an output of 200 mW/cm^2 to cure the coating. The resultant was then further heated at 110°C for 1 hour to produce a photochromic laminate with a photochromic layer.
Photochromic laminates were produced using the photochromic compounds obtained in Examples 2 to 20 in the same manner as in Example 21.
Photochromic laminates were obtained using photochromic compounds represented by Formulae (A) to (D) below in the same manner as in Example 21. [drawing 89] [drawing 90] [drawing 91] [drawing 92] [drawing 93]
The resulting photochromic laminates were evaluated by the below-mentioned methods. • (1) Photochromic property • [1] Maximum absorption wavelength (λmax): This is the maximum absorption wavelength after color development determined by a spectrophotometer manufactured by Otsuka Electronics Co., Ltd. (instantaneous multichannel photo detector MCPD3000) and was used as an index of a color tone upon color development. • [2] Color developing density at 23°C (A23): This is a difference between an absorbance {ε(240)} after irradiation with light at 23°C for 240 seconds and an absorbance ε(0) when not irradiated with light at the maximum absorption wavelength and was used as an index of a color developing density. The higher this value is, the better a photochromic property is. • [3] Color fading half-life at 23°C [τ1/2 (sec).)]: This is a period of time taken by an absorbance at the maximum absorption wavelength of a sample to decrease to 1/2 of {ε(240)-ε(0)} when irradiation is stopped after irradiation with light at 23°C for 240 seconds, and was used as an index of a color fading rate. The shorter this period of time is, the faster the color fading rate is. • [4] […]

[2] = Photochromic property of photochromic cured product made by kneading method; settings: for Residual ratio: A96/A0 x 100 after 96 hours accelerated degradation, xenon weather meter X25; for Color developing density at 23°C: absorbance difference after 240 seconds irradiation at the maximum absorption wavelength of the same line
Description: (§1) The resulting photochromic laminates were evaluated by the below-mentioned methods. • (1) Photochromic property • [1] Maximum absorption wavelength (λmax): This is the maximum absorption wavelength after color development determined by a spectrophotometer manufactured by Otsuka Electronics Co., Ltd. (instantaneous multichannel photo detector MCPD3000) and was used as an index of a color tone upon color development. • [2] Color developing density at 23°C (A23): This is a difference between an absorbance {ε(240)} after irradiation with light at 23°C for 240 seconds and an absorbance ε(0) when not irradiated with light at the maximum absorption wavelength and was used as an index of a color developing density. The higher this value is, the better a photochromic property is. • [3] Color fading half-life at 23°C [τ1/2 (sec).)]: This is a period of time taken by an absorbance at the maximum absorption wavelength of a sample to decrease to 1/2 of {ε(240)-ε(0)} when irradiation is stopped after irradiation with light at 23°C for 240 seconds, and was used as an index of a color fading rate. The shorter this period of time is, the faster the color fading rate is. • [4] Residual ratio (A96/A0 x 100): The resulting photochromic plastic lens was subjected to accelerated degradation for 96 hours using a xenon weather meter X25 manufactured by Suga Test Instruments Co., Ltd. Color developing densities were then evaluated before and after a test, and a color developing density before the test (A0) and a color developing density after the test (A96) were measured. A ratio (A96/A0) was determined as a residual ratio and was used as an index of color development durability. The higher the residual ratio is, the more durable the color development is.
First, the photochromic compound obtained in Example 1, an additive, and a polymerizable compound were mixed to obtain a curable composition. The polymerizable compound was a combination of the following polymerizable monomers: • · 1,3-Bis(isocyanatomethyl)cyclohexane: 36.7 parts by mass • · Pentaerythritol tetrakis(3-mercaptopropionate): 39.4 parts by mass • · Polyoxyethylene polyoxypropylene lauryl ether (WONDERSURF 140 manufactured by AOKI OIL INDUSTRIAL Co., Ltd.): 17.4 parts by mass • · 1-Decanethiol: 2.8 parts by mass • · RX-1 prepared by the method described in Patent Document 14: 3.8 parts by mass
Note that, in the curable composition, the photochromic compound was added in an amount of 0.106 mmol taking a total amount of the polymerizable monomers as 100 g.
The following additives were used: • · Dimethyltin dichloride: 0.05 parts by mass • · Irganox 245: 0.1 parts by mass • · 2-Ethylhexyl […]: 0.6 parts by mass
After the thus-prepared curable composition was thoroughly defoamed, it was poured into a glass mold with a gap of 1 mm and polymerized by casting polymerization. […] After the polymerization, the resulting cured product was removed from the glass mold to obtain a photochromic cured product with a thickness of 1 mm. The resulting photochromic cured product was evaluated in the same manner as for Example 23.
Photochromic cured products were produced using the photochromic compounds shown in Table 4 in the same manner as in Example 50.

[3] = Photochromic property of binder sheet (photochromic layer made by binder method); settings: for Residual ratio: A96/A0 x 100 after 96 hours accelerated degradation, xenon weather meter X25; for Color developing density at 23°C: absorbance difference after 240 seconds irradiation at the maximum absorption wavelength of the same line
Description: as §1
A binder sheet was produced as follows. The binder sheet was made by laminating a first optical sheet, a first adhesive layer, a photochromic layer, a second adhesive layer, and a second optical sheet in this order. A polycarbonate sheet with a thickness of 400 µm was used as the first optical sheet and the second optical sheet.
A 2 L four-necked flask equipped with a stirring blade, a condense tube, a thermometer, and a nitrogen gas inlet tube was charged with 315 parts by mass of polycarbonate diol with a number average molecular weight of 1000, 100 parts by mass of isophorone diisocyanate, and 72 parts by mass of toluene and reacted under a nitrogen atmosphere at 100°C for 7 hours. Thus, a urethane prepolymer with a terminal isocyanate group was synthesized. After the reaction of the above-mentioned urethane prepolymer was completed, the resulting reaction liquid was cooled to about 0°C and dissolved in 205 parts by mass of tertiary-butyl alcohol and 382 parts by mass of diethyl ketone, and then a temperature of the resulting liquid was kept at 0°C. Next, a mixed solution of 21.3 parts by mass of bis-(4-aminocyclohexyl)methane serving as a chain extender and 20 parts by mass of diethyl ketone was added dropwise thereto within 30 minutes and reacted at 0°C for 1 hour. Then, 8.1 parts by mass of 1,2,2,6,6-pentamethyl-4-aminopiperidine was added dropwise thereto and reacted at 0°C for 1 hour to obtain a solution of a terminal non-reactive urethane urea resin in diethylketone.
One hundred parts by mass of the resulting solution of a terminal non-reactive urethane urea resin, 6.3 parts by mass of Example 1 (a photochromic compound represented by Formula (1-7), an isomer mixture of 4,4'-methylenebis(cyclohexylisocyanate) (polyisocyanate compound)), 0.4 parts by mass of ethylenebis(oxyethylene) bis[3-(5-tert-butyl-4-hydroxy-m-tolyl) propionate] serving as an antioxidant, and 0.06 parts by mass of L-7001 manufactured by DuPont Toray Specialty Materials K.K. serving as a surfactant were added and stirred and mixed at room temperature to obtain a composition for forming a photochromic layer. […]

[4] = Solubility of photochromic compound in polymerizable compounds; set-up: key: 1: No haze is seen when checked under transmission of light, and the sample is completely dissolved.; 2: A very thin haze is seen to the extent that it can be seen under transmission of light.; 3: A thin haze that can be seen under transmission of light is seen.; 4: A haze can be seen even without transmission of light; settings: 35 µmol/g in radical polymerizable compound composition of Example 21, 65 to 70°C; for Dissolution for 15 min / Dissolution for 30 min / Dissolution for 45 min: stirring and ultrasonic irradiation; for Dissolution for 1 hour: head reads 60 min in Tables 8 to 14
Description: The photochromic compounds according to Examples and Comparative examples shown in Table 5 were evaluated for solubility in polymerizable compounds.
Specifically, a sample was prepared by adding each of the photochromic compounds to the composition, which consisted of a radical polymerizable compound, among the curable compositions used in Example 21.
Note that, this test was performed using "YOKAI-KUN USS-1" manufactured by NIHONSEIKI KAISHA LTD. under the following conditions: • Dissolution temperature: 65 to 70°C • Stirring condition: Stirring dial of 5. Ultrasonic irradiation condition: Irradiation interval of 3 sec.
Dissolution was checked every 15 minutes up to 1 hour later, the sample was visually checked by transmitting light through the sample, and a degree of dissolution was evaluated according to the following four evaluation criteria.
• 1: No haze is seen when checked under transmission of light, and the sample is completely dissolved. • 2: A very thin haze is seen to the extent that it can be seen under transmission of light. • 3: A thin haze that can be seen under transmission of light is seen. • 4: A haze can be seen even without transmission of light.
A shorter time required for the evaluation result to be 1 means higher solubility.

| SMILES | Color fading half-life at 23°C [1] [min] | Residual ratio [1] | Residual ratio [2] | Color developing density at 23°C [2] | Residual ratio [3] | Color developing density at 23°C [3] | Dissolution for 15 min [4] | Dissolution for 30 min [4] | Dissolution for 45 min [4] | Dissolution for 1 hour [4] |
| --- | --- | --- | --- | --- | --- | --- | --- | --- | --- | --- |
| CCCC1(C)c2cc(C)ccc2-c2c1c1c(c3cc(C)ccc23)OC(c2ccc(C)cc2)(c2ccc(OC)cc2)C=C1 (centres unmarked) [Formula (1-5)] | 2.28 | 62% | 71% | 0.66 - and 1.10 - | 82% | 0.65 - and 1.11 - |  |  |  |  |
| CCCCC1(C)c2cc(-c3ccc(C)cc3)ccc2-c2c1c1c(c3cc(OC)c(OC)cc23)OC(c2ccc(OC)cc2)(c2ccc(OC)cc2)C=C1 (centres unmarked) [Formula (5-6)] |  |  |  |  | 80% and 81% | 1.33 - and 0.84 - |  |  |  |  |
| CCCCC1(CCC)c2cc(C)ccc2-c2c1c1c(c3cc(OC)c(-c4ccc(N5CCOCC5)cc4)cc23)OC(c2ccc(OC)cc2)(c2ccc(N3CCOCC3)cc2)C=C1 (centres unmarked) [Formula (10-1)] | 1.42 |  | 70% and 69% | 1.10 - and 1.07 - |  |  | 3 | 2 | 1 | 1 |
| CCCCCCC1(CC)c2cc(-c3ccc(OC(C)C)cc3)ccc2-c2c1c1c(c3cc(OC)c(-c4ccc(OC(C)C)cc4)cc23)OC(c2ccc(OC)cc2)(c2ccc(OCCC)cc2)C=C1 (centres unmarked) [Formula (11-1)] |  | 69% 69% |  |  | 92% and 91% | 1.21 - and 1.03 - |  |  |  |  |
| CCCCCC1(CC)c2cc(OC(F)(F)F)ccc2-c2c1c1c(c3cc(OC)ccc23)OC(c2ccc(OC)cc2)(c2ccc(OC)cc2)C=C1 (centres unmarked) [Formula (15-1)] |  |  |  |  | 90% and 91% | 0.61 - and 0.73 - | 3 | 2 | 1 | 1 |
| CCCCC1(CC)c2cc(-c3ccc(C(C)(C)C)cc3)ccc2-c2c1c1c(c3cc(OC)c(N4CCCCC4)cc23)OC(c2ccc(OC)cc2)(c2ccc(OC)cc2)C=C1 (centres unmarked) [Formula (17-2)] |  |  | 58% and 59% |  | 68% and 70% | 1.68 - and 0.84 - |  |  |  |  |

Next, values leading:

| Color fading half-life at 23°C [1] [min] | Residual ratio [1] | Residual ratio [2] | Color developing density at 23°C [2] | Residual ratio [3] | Color developing density at 23°C [3] | Dissolution for 15 min [4] | Dissolution for 30 min [4] | Dissolution for 45 min [4] | Dissolution for 1 hour [4] | SMILES |
| --- | --- | --- | --- | --- | --- | --- | --- | --- | --- | --- |
|  | 60% | 67% and 66% | 0.63 - and 1.13 - |  |  |  |  |  |  | CCCCCCC1(CC)c2ccccc2-c2c1c1c(c3cc(OC)ccc23)OC(c2ccc(C)cc2)(c2ccc(N(C)c3ccccc3)cc2)C=C1 (centres unmarked) [Formula (7-4)] |
| 1.67 |  | 72% and 71% | 1.07 - and 0.96 - |  |  |  |  |  |  | CCCCCC1(CCC)c2cc(N(c3ccccc3)c3ccccc3)ccc2-c2c1c1c(c3cc(OC)ccc23)OC(c2ccc(OC)cc2)(c2ccc(OC)cc2)C=C1 (centres unmarked) [Formula (8-3)] |
|  |  | 66% and 65% | 0.64 - and 1.23 - |  |  |  |  |  |  | CCCC1(CC)c2cc(C)ccc2-c2c1c1c(c3cc(C)c(-c4ccc(OC)cc4)cc23)OC(c2ccc(OC)cc2)(c2ccc(N(c3ccccc3)c3ccccc3)cc2)C=C1 (centres unmarked) [Formula (12-2)] |
